Measured values published in US20210278408A1, “METHODS OF TREATMENT OF CANCER WITH SUBSTITUTED PYRROLE AND PYRAZOLE COMPOUNDS AND DIAGNOSIS OF CANCERS SUSCEPTIBLE TO TREATMENT WITH SUBSTITUTED PYRROLE AND PYRAZOLE COMPOUNDS” (Bantam Pharmaceutical, LLC, priority 2018, published 2021).
pIC50: −log10 of the molar value. Like-named read-outs stand apart in the source and are kept apart here. Each block holds one compound with its values, some of them ahead of it.

Legend:
[1] = Single rising-dose mouse pharmacokinetics (PK) experiment; type: in vivo, CD-1 mice; details: for PK properties: mouse PK data
Procedure: FIG. 9 is a graph of mouse pharmacokinetics of a single rising dose PK of Compound A197 in female CD-1 mice. Compound was administered orally with the indicated dose. Blood was drawn by tail-bleed at the appropriate times and Compound A197 plasma levels determined by LC-MS. All values, mean±SD (n=3 mice per group).
A single rising-dose mouse pharmacokinetics (PK) experiment was performed at PGP-52 TI 10, 20, 40, 150 and 300 mg/kg Compound A197. Female CD-1 mice (20-30 grams in weight) were dosed by oral gavage or by intravenous injection with A197 dissolved in 1% NMP, 0.3% Tween-80 in 0.5% methylcellulose at a dose volume of 10 ml/kg. Following compound dosing, blood was collected by tail vein bleed into K2EDTA tubes at 30 minutes, 1, 3, 5, 7, 24 an 48 hrs following dosing. Plasma (5 μL) from A197 dosed animals was acidified with […] and 1% ammonium formate in methanol to precipitate protein and delipidate plasma. The material was centrifuged at 1000× and a 120 μL sample of the supernatant was then dried under vacuum. The deproteinated and delipidated residue was resuspended in 200 μL of 1% ammonium formate in methanol and the centrifugation and drying process repeated. The dried material is then resuspended in 100 μL of a mixture of 2 parts methanol: 1 part acetonitrile: 1 part water. A 10 μL sample of this material is then injected onto a Xbridge C18 2.5 μM, 3×30 mm, XP column attached to a TSQ Vantage LC/MS system for quantitation.

[2] = system: SK-MEL-28; experiment: Anti-proliferative activity, CellTiter-Glo, 72 hours: SK-MEL-28; type: cell-based, human; details: Homo sapiens, SK-MEL-28 (melanoma), Cell-Titre-Glo
Procedure: (§1) Anti-proliferative activity of BTM compounds. The anti-proliferative activities of Compound A197 and Compound B19 were compared to 4EGI-1 (a known cancer cell growth inhibitor) in a panel of 99 tumor lines. Methods: A panel of 96 tumor and 3 normal cell lines were tested for sensitivity to the test compound. The cell lines were cultured in standard media and pipetted into 96-well plates at the required plating densities. The cells were acclimated for 24 hours prior to compound testing. Compound was prepared as a stock of 20 mM in DMSO. To prepare dose response curves compound was serially diluted in DMSO and dispensed into the plate wells using a Tecan D300e digital dispenser. The final DMSO concentration was 0.15%. After 72 hours of incubation cell number was determined using the CellTiter-Glo® protocol according to the manufacturers instructions (Promega). In this assay, ATP is measured as a surrogate of cell number. The activity of the compound is determined by comparing untreated cells with treated cells and calculating the % of signal retained. Compound activity is measured as an EC50 of maximum level of efficacy and the two are used to compute an activity area. The table below provides a comparison of activity in a data sample.

[3] = system: NCI-H460; experiment: Anti-proliferative activity, CellTiter-Glo, 72 hours: NCI-H460; type: cell-based, human; details: Homo sapiens, NCI-H460 (non-small cell lung cancer), Cell-Titre-Glo
Procedure: as §1

[4] = system: HCT-116; experiment: Anti-proliferative activity, CellTiter-Glo, 72 hours: HCT-116; type: cell-based, human; details: Homo sapiens, HCT-116 (colorectal cancer), Cell-Titre-Glo
Procedure: as §1

[5] = system: panel of 96 tumor and 3 normal cell lines; experiment: Anti-proliferative activity in a panel of 99 cell lines, CellTiter-Glo, 72 hours; type: cell-based, human; details: for pIC50: Homo sapiens, in responsive cell lines, read-out: activity range; for % of hematopoietic tumor lines being responsive / % of solid tumor lines being responsive: IC50<2 μM; for active in % of the tested cell lines (IC50<2 μM): all tested cell lines; for % of NSCLC tumor lines responsive / % of colorectal tumor lines responsive / % of sarcoma tumor lines responsive: among solid tumor lines; for activity in primary diploid cell lines: e.g. human umbilical vein endothelial cells and normal human lung fibroblasts (NHLF)
Procedure: as §1

[6] = system: NCI-H2122; experiment: Anti-proliferative activity, CellTiter-Glo, 72 hours: NCI-H2122; type: cell-based, human; details: Homo sapiens, NCI-H2122 (non-small cell lung cancer), Cell-Titre-Glo
Procedure: as §1

[7] = system: 8305C; experiment: Cell viability, CellTiter-Glo, 96 h: 8305C; type: cell-based; details: for pIC50: read-out: Absolute IC50
Procedure: Viability was determined by using the 50% inhibitory concentration (IC50) as determined with the CellTiter-Glo® Viability Assay (Promega). All cells were cultured under standard conditions in media supplemented with 10-15% Fetal Bovine Serum, at a temperature of 37° C., 5% CO2 and 95% humidity.
Cells were harvested during the logarithmic growth period, counted, and the cell concentration adjusted to 4.44×10^4 cells/mL using culture medium. A final cell density of 4×10^3 cells/well was added in a 90 μL cell suspension to plates A and B as shown.
Test plate B was incubated for 96 h in the humidified incubator at 37° C. with 5% CO2.
Following the incubation, the plate was equilibrated at room temperature for thirty minutes. CellTiter-Glo® (50 μL) was added to each well of the plate and contents mixed for five minutes on an orbital shaker to induce cell lysis. The luminescent signal was allowed to stabilize at room temperature for 20 minutes and the luminescence recorded.
IC50 (EC50) was calculated using a dose-response curve, fitted using a nonlinear regression model with a sigmoidal dose response. Survival rate was calculated using the formula:
The Surviving rate (%)=(LumTest article−LumMedium control)/(LumNon-treated−LumMedium control)×100%.
Absolute IC50 (EC50) was calculated according to the dose-response curve generated by the statistical software (GraphPad Prism 5.0).

pIC50 [2]: < 4.52
pIC50 [3]: 6.78
pIC50 [4]: 6.46
pIC50 [6]: 6.74
SMILES: COC(=O)c1c(-c2cccc(F)c2)c(C)nn1-c1nc(C2=CCC(C(F)(F)F)CC2)c(SC(C)C)s1 (single isomer, unassigned) [Compound B19, methyl 4-(3-fluorophenyl)-1-(5-(isopropylthio)-4-(4-(trifluoromethyl)cyclohex-1-en-1-yl)thiazol-2-yl)-3-methyl-1H-pyrazole-5-carboxylate]
PK properties [1]: drug-like PK properties suitable for once daily dosing
pIC50 [5]: 5.70 to 7.00
% of hematopoietic tumor lines being responsive [5]: 90%
% of solid tumor lines being responsive [5]: 28%
active in % of the tested cell lines (IC50<2 μM) [5]: 40%
% of NSCLC tumor lines responsive [5]: 80%
% of colorectal tumor lines responsive [5]: 37%
% of sarcoma tumor lines responsive [5]: 40%
activity in primary diploid cell lines [5]: tested negative

SMILES: N.N.[Cl][Pt][Cl] [Cisplatin, reference compound]
% inhibition at top conc. [7]: 99.17%
pIC50 [7]: 5.21

SMILES: Cc1nn(-c2nc(-c3ccc(C(F)(F)F)cc3)c(SC(C)C)s2)c(C(=O)O)c1-c1cccc(F)c1 [Compound A197, 4-(3-fluorophenyl)-1-(5-(isopropylthio)-4-(4-(trifluoromethyl)phenyl)thiazol-2-yl)-3-methyl-1H-pyrazole-5-carboxylic acid]
PK properties [1]: drug-like PK properties suitable for once daily dosing
dose proportionality ([1]; single rising dose 10, 20, 40, 150 and 300 mg/kg, oral, female CD-1 mice, plasma by LC/MS): dose proportionality was observed up to 300 mg/kg
pIC50 [2]: < 4.52
pIC50 [3]: 6.81
pIC50 [4]: 6.53
pIC50 [5]: 5.70 to 7.00
% of hematopoietic tumor lines being responsive [5]: 90%
% of solid tumor lines being responsive [5]: 28%
active in % of the tested cell lines (IC50<2 μM) [5]: 40%
% of NSCLC tumor lines responsive [5]: 80%
% of colorectal tumor lines responsive [5]: 37%
% of sarcoma tumor lines responsive [5]: 40%
activity in primary diploid cell lines [5]: tested negative
pIC50 [6]: 6.70
% inhibition at top conc. [7]: 33.79%
pIC50 ([7]; Homo sapiens): < 4.52
